In patent US20250129070A1, “BIFUNCTIONAL ANDROGEN RECEPTOR COMPOUNDS” (priority 2023, published 2025) one finds EC50 and IC50 data, which are given here for six compounds.

Bounds are passed on as bounds.

In general, EC50 refers to the midpoint of the concentration-response curve. The IC50 is the concentration that gives 50% inhibition. High values mean a need for much substance, low ones inhibition by little substance.

Experiment [1] relates to AR / CBP ternary complex. Put plainly: Ternary complex formation assay (sandwich ELISA, AR capture / CBP detection) in VCaP cell lysates. It counts as cell-based. The conditions noted are these: 1.5 hours treatment, sandwich ELISA (AR capture, CBP or p300 detection). A digest of the protocol: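 VCaP cells (50K/well, 5% charcoal-stripped FBS, ≥3 days) treated with bifunctional compound for 1.5 h, then lysed 30 min at 4 °C. AR captured on anti-AR (AR 441) plates; bound CBP or p300 detected by rabbit mAb plus HRP secondary. QuantaRed chemifluorescence read at ex 570/em 585, immediately and at 5 and 15 min.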
A general note: ELISA stands for enzyme-linked immunosorbent assay.

Experiment [2] concerns VCaP cells. Put plainly: VCaP growth inhibition assay. The experiment is classed as cell-based. The conditions noted are these: 30 pM R1881, 9 days, CTG. Put shortly: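 VCaP cells in phenol red-free DMEM/5% CSS, pre-incubated 72 h, then stimulated with R1881 (final 30 pM) and treated with 1:5 serial dilutions (final 100 nM to 10 fM) for 9 days at 37 °C. Viability by CellTiter-Glo luminescence; IC50 from 4-parameter logistic fit of RLU vs concentration.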

In experiment [1], `COc1cc(OC2C(C)(C)C(NC(=O)c3ccc(N4CC5CC4CC5CN4CCC(n5nc(N6CCCc7cc(-c8cnn(C)c8)c(C(F)F)cc76)c6c5CCN(C(C)=O)C6)CC4)cc3)C2(C)C)ccc1C#N` (stereo not drawn) [Compound 255, 4-[5-[[4-[5-acetyl-3-[7-(difluoromethyl)-6-(1-methylpyrazol-4-yl)-3,4-dihydro-2H-quinolin-1-yl]-6,7-dihydro-4H-pyrazolo[4,3-c]pyridin-1-yl]-1-piperidyl]methyl]-2-azabicyclo[2.2.1]heptan-2-yl]-N-[3-(4-cyano-3-methoxy-phenoxy)-2,2,4,4-tetramethyl-cyclobutyl]benzamide] gave an EC50 of under 1 nM. Besides, the IC50 in experiment [2] lay within 0.1 to 1 nM.
For `COc1cc(OC2C(C)(C)C(NC(=O)c3ccc(C#CC4CCC(N5CCC(n6nc(N7CCCc8cc(-c9cnn(C)c9)c(C(F)F)cc87)c7c6CCN(C(C)=O)C7)CC5)CC4)cc3)C2(C)C)ccc1C#N` (stereo not drawn) [Compound 292, 4-[2-[4-[4-[5-acetyl-3-[7-(difluoromethyl)-6-(1-methylpyrazol-4-yl)-3,4-dihydro-2H-quinolin-1-yl]-6,7-dihydro-4H-pyrazolo[4,3-c]pyridin-1-yl]-1-piperidyl]cyclohexyl]ethynyl]-N-[3-(4-cyano-3-methoxy-phenoxy)-2,2,4,4-tetramethyl-cyclobutyl]benzamide], in that order: under 1 nM and 0.1 to 1 nM.
For `COc1cc(OC2C(C)(C)C(NC(=O)c3ccc(N4CCC(N5CC6(CCC(n7nc(N8CCCc9cc(-c%10cnn(C)c%10)c(C(F)F)cc98)c8c7CCN(C(C)=O)C8)CC6)C5)CC4)cc3)C2(C)C)ccc1C#N` (stereo not drawn) [Compound 372, 4-[4-[7-[5-acetyl-3-[7-(difluoromethyl)-6-(1-methylpyrazol-4-yl)-3,4-dihydro-2H-quinolin-1-yl]-6,7-dihydro-4H-pyrazolo[4,3-c]pyridin-1-yl]-2-azaspiro[3.5]nonan-2-yl]-1-piperidyl]-N-[3-(4-cyano-3-methoxy-phenoxy)-2,2,4,4-tetramethyl-cyclobutyl]benzamide], in that order: under 1 nM and at most 0.1 nM.
`COc1cc(OC2C(C)(C)C(NC(=O)c3ccc(N4CCC(N5CCC(n6nc(N7CCCc8cc(-c9cnn(C)c9)c(C(F)F)cc87)c7c6CCN(C(C)=O)C7)CC5)CC4)cc3)C2(C)C)ccc1C#N` (stereo not drawn) [Compound 277, 4-[4-[4-[5-acetyl-3-[7-(difluoromethyl)-6-(1-methylpyrazol-4-yl)-3,4-dihydro-2H-quinolin-1-yl]-6,7-dihydro-4H-pyrazolo[4,3-c]pyridin-1-yl]-1-piperidyl]-1-piperidyl]-N-[3-(4-cyano-3-methoxy-phenoxy)-2,2,4,4-tetramethyl-cyclobutyl]benzamide]: the EC50 in experiment [1] was under 1 nM. In addition, the half-maximal inhibitory concentration (IC50) in experiment [2] was at most 0.1 nM.
For `CC(=O)N1CCc2c(c(N3CCCc4cc(-c5cnn(C)c5)c(C)cc43)nn2C2CCN(C3CCC4(CC3)CN(c3ncc(C(=O)NC5C(C)(C)C(Oc6ccc(C#N)c(Cl)c6)C5(C)C)cn3)C4)CC2)C1` (stereo not drawn) [Compound 468, 2-[7-[4-[5-acetyl-3-[7-methyl-6-(1-methylpyrazol-4-yl)-3,4-dihydro-2H-quinolin-1-yl]-6,7-dihydro-4H-pyrazolo[4,3-c]pyridin-1-yl]-1-piperidyl]-2-azaspiro[3.5]nonan-2-yl]-N-[3-(3-chloro-4-cyano-phenoxy)-2,2,4,4-tetramethyl-cyclobutyl]pyrimidine-5-carboxamide], in that order: under 1 nM and 0.1 to 1 nM.
In experiment [1], `COc1cc(OCC(C)(C)[C@H](NC(=O)c2ccc(N3CCN(CC4CCC(n5nc(N6CCCc7cc(-c8cnn(C)c8)c(C(F)F)cc76)c6c5CCN(C(C)=O)C6)CC4)CC3)cc2)C(C)C)ccc1C#N` (stereo partly drawn) [Compound 317, 4-[4-[[4-[5-acetyl-3-[7-(difluoromethyl)-6-(1-methylpyrazol-4-yl)-3,4-dihydro-2H-quinolin-1-yl]-6,7-dihydro-4H-pyrazolo[4,3-c]pyridin-1-yl]cyclohexyl]methyl]piperazin-1-yl]-N-[(1R)-3-(4-cyano-3-methoxy-phenoxy)-1-isopropyl-2,2-dimethyl-propyl]benzamide] showed an EC50 of under 1 nM. The half-maximal inhibitory concentration (IC50) in experiment [2] is at most 0.1 nM.
